Measurements published in patent US3997530A, “Substituted enaminoketones” (American Cyanamid Company, priority 1976, dated 1976).
Values joined by “and” are separate entries in the source; they are usually repeats but may differ in a detail not shown here. Equal entries are not always repeated.

Key:
[1] = "writhing syndrome" test for analgesic activity (phenyl-p-quinone); assay type: in vivo, male Swiss albino mice; details: 100 mg./kg. oral, 30 minutes before phenyl-p-quinone; 3 minute count commencing 15 minutes after; control approximately 30 per pair; active if 18 or less
From the text: The substituted enaminoketones of the present invention are active analgesics when measured by the "writhing syndrome" test for analgesic activity as described by Siegmund, et al., Proc. Soc. Exp. Bio. and Med., 95, 729 (1957), with modifications. This method is based upon the reduction of the number of writhes following the intraperitoneal injection of one mg./kg. of body weight of phenyl-p-quinone in male Swiss albino mice weighing 18-25 gm. The syndrome is characterized by intermittent contractions of the abdomen, twisting and turning of the trunk, and extension of the hind legs beginning 3 to 5 minutes after injection of the phenyl-p-quinone. The test compounds are administered orally at the indicated dose to groups of 2 mice each, 30 minutes before injection of the phenyl-p-quinone. […] A compound is considered active if it reduces the total number of writhes in 2 test mice from a control value of approximately 30 pair to a value of 18 or less. Table I summarized the results of this test on representative compounds of this invention.

[2] = Water solubility of salts; assay type: physicochemical
[3] = Walking gait test in rats with yeast-inflamed paw (modified Atkinson and Cowan); assay type: in vivo, male, albino Wistar strain rats; details: oral by gavage, dose producing 50% reversal of the pre-dose gait score, one and/or two hours post-drug
Method: Atkinson and A. Cowan, J. Pharm. Pharmac, 26, 727 (1974).
In this test male, albino Wistar strain rats from Royalhart farms, weighing 120-150 g. are deprived of food for about 20 hours. A 40% suspension of brewers' yeast in physiological saline is injected, at a concentration of 0.25 ml/rat into the plantar surface of the left hind paw of each rat. 3 hours later, at which time an inflammation of the injected paw has developed, a pre-drug assessment of walking gait is made for each rat according to the following scoring system:
0 = Normal gait in the presence of a severely inflammed paw. There is continuous use of the foot pad.
0.5 = As above with intermittent mild limping.
1.0 = Constant limping, but continuous use of the foot pad.
1.5 = Limping with occasional three-legged gait (paw kept off walking surface) or intermittent use of digits in combination with foot pad.
2.0 = Continuous three-legged gait and/or only the tips of the digits touch the walking surface. There is no use of foot pad.
Compounds, in a suitable vehicle, are administered orally by gavage in a volume of 0.5 ml./100 g. of body weight. One and/or two hours later a post-drug assessment of walking gait is made as described above. The criterion of an analgesic response for each rat is a 50% reversal of the abnormal gait score (post-drug) from the pre-drug score. […]

[4] = Antipyretic activity, brewers' yeast-induced hyperthermia (modified Teotino et al.); assay type: in vivo, rats
Method: The compounds of this invention also show antipyretic activity by their ability to reduce a hyperthermic response in warm-blooded animals, e.g., rats, induced by the subcutaneous injection of a suspension of brewers' yeast. This is a modification of the method described by Teotino, et al., J. Med. Chem. 6, 248 (1963). A 40% suspension of brewer's yeast in distilled water is administered to groups of five to ten rats subcutaneously (1.0 ml./100 g. of body weight). Eighteen hours later, rectal temperatures are recorded and compounds, control vehicle (2% starch suspension) or aspirin is administered. Rectal temperatures are recorded 4 hours later and the results are compared with the starch treated controls and with aspirin, a reference antipyretic agent.

[5] = Brewer's Yeast Pressure Pain Test (modified Randall and Selitto); assay type: in vivo, rats
Method: To determine analgesic activity, a modification of the method of Randall and Selitto [Arch. int. Pharmacodyn., 111, 409 (1957)] is used. This test measures the pain threshold of rats whose paws are made sensitive to pressure by the injection of a 20% aqueous suspension (0.1 ml.) of brewers' yeast into the plantar surface of the left hind paw. Constantly increasing force (16 grams/second) is applied to the swollen paw using an Analgesy Meter, Ugo Basile. The pressure is cut off at 250 grams of force when there is no response (sudden struggle or vocalization). Control rats treated with the starch vehicle response to a pressure or force of about 30 grams. Pressure-pain thresholds are always recorded 2 hours after brewers' yeast. Analgesic agents are administered at the same time as the yeast, at a dose of 200 mg./kg. orally. Ratios of treated (T)/control (C) reaction thresholds are calculated as estimates of analgesic efficacy (degree of analgesia attainable). Potency is regarded as the dose necessary to produce a given level of analgesia (i.e. 100% elevation of pain threshold is T/C=2.0).

## NC(=CC(=O)c1cnccn1)C1CC1 [1-amino-1-cyclopropyl-3-(2-pyrazinyl)-1-propen-3-one]
[1]
  No. of writhes per pair: 3.8

## c1cncc(-c2cc(C3CC3)no2)c1 [3-(3-cyclopropyl-5-isoxazolyl)pyridine]
[2]; sulfate salt
  water solubility: water soluble

## c1cncc(-c2cc(C3CC3)on2)c1 [3-(5-cyclopropyl-3-isoxazolyl)pyridine]
[2]; acetate salt
  solubility: slightly soluble

## NC(=CC(=O)c1cccnc1)C1CC1 [3-amino-3-cyclopropyl-1-(3-pyridyl)-2-propen-1-one]
[3]; Rattus norvegicus, po, 2 h, read-out: ED50
  ED50: 27 mg/kg
[3]
  ED50: 40 mg/kg and 26 mg/kg

## NC(=CC(=O)c1ccncc1)C1CC1 [3-amino-3-cyclopropyl-1-(4-pyridyl)-2-propen-1-one]
[1]
  No. of writhes per pair: 9.4
[4]; 200 mg./kg., normal rats
  effect on body temperature of normal rats: not effecting the body temperature of normal rats
[4]; 200 mg./kg., rectal temperature 4 hours later, yeast-treated rats
  lowering the yeast-elevated body temperature of rats: effective in lowering the yeast-elevated body temperature of rats
[5]; 200 mg./kg. orally, 2 hours after brewers' yeast, ratio of reaction thresholds T/C
  Ratio (Treated/Control) Measured at 2 Hours Following 200 mg./kg. Oral Dose: 1.45 and 1.39
[5]; Rattus norvegicus, 2 h, oral, Brewer's Yeast Pressure Pain Test
  ED50: 25 mg/kg

## c1cc(-c2cc(C3CC3)no2)ccn1 [4-(3-cyclopropyl-5-isoxazolyl)pyridine]
[2]; phosphate salt
  water solubility: water soluble

## c1cc(-c2cc(C3CC3)on2)ccn1 [4-(5-cyclopropyl-3-isoxazolyl)pyridine]
[2]; citrate salt
  water solubility: slightly water soluble

## CC(=O)Oc1ccccc1C(=O)O [Aspirin, reference compound]
[4]; aspirin reference, dose not given, normal rats
  effect on temperature of normal rats: not effecting the temperature of normal rats
[4]; aspirin reference, dose not given, yeast-treated rats
  lowering yeast-elevated temperatures: similarly effective in lowering yeast-elevated temperatures
